Data set [1] concerns cells. The experiment in a line: Chemosensitizing of an anti-cancer agent by a co-administered redox clamping agent (FIG. 2). The data set is classed as cell-based. The source says: The present invention further provides a method of reducing the effective dose of an anti-cancer agent necessary to be effective against cancer comprising administering a redox clamping agent in conjunction with an anti-cancer agent. It is preferred that the redox clamping agent is Mesna or DMSA. Redox clamping agents have the ability to maintain cells in a selected redox state. […] Redox clamping agents are useful in enhancing the therapeutic activity of chemotherapeutic agents such as butyrate that are dependent upon the redox state of the cell. Redox clamping agents are further useful in controlling hyperproliferation of cells and conditions associated with abnormal fluctuations in the redox state of cells. In one aspect, this invention provides a method of treating cancerous tumors comprising administering an effective dose of an anti-cancer agent in conjunction with a redox clamping agent, wherein the redox clamping agent acts as a chemoenhancer or a chemosensitizer. […] The administration of Mesna in conjunction with an anti-cancer agent may be as separate compounds or in a composition formulated and titrated to a dose and in a concentration that would achieve the optimal therapeutic dose of the anti-cancer agent providing a higher tumor cell kill with a lower dose of the anti-cancer agent than the typical therapeutic dose administered to a patient. […]

Data set [2] concerns H4 Rat Hepatoma cells. The experiment in a line: Stress-induced antioxidant upswing in H4 Rat Hepatoma cells after hydrogen peroxide. To be noted: 100 uM hydrogen peroxide for two hours, medium replaced; determined after 24 hours in culture. Type of data set: cell-based. The procedure:
To further exemplify the redox clamping properties of Mesna, stress was induced in H4 Rat Hepatoma cells by treatment with 100 uM hydrogen peroxide for two hours and then the medium was removed and replaced with an anti-cancer agent. The cellular viability, as well as glutathione and metallothionein levels were determined after 24 hours in culture. […] The inhibition of stress induced upswing in antioxidant levels is characteristic of redox clamping agents.
In all of the experiments associated with the investigation of Mesna as a redox clamping agent, as a stand-alone anticancer agent as well as a chemosensitizer, the cell culture medium used was Swim's S-77 medium containing 12 uM cystine, instead of conventional levels of this amino acid (i.e., 50 uM). All other components of the medium were maintained at conventional concentrations. […] The ability of cystine to supply cells with cysteine, which then function as a precursor amino acid for glutathione synthesis, is thought to be responsible for the abnormally high basal levels of glutathione in cultured tumor cell lines.

In data set [3] the test system is Human LNCaP cells. The experiment in a line: Two-step arsenic then Mesna treatment of human LNCaP cells: apoptosis and glutathione levels (FIG. 1). Type of data set: cell-based. On the procedure:
In one aspect, the present invention further provides a method of using a redox clamping agent as a chemosensitizer comprising contacting tumor cells with a specific class of cytotoxic agent for a period of time, preferably between 2 and 4 hours, and then washing the agent from the cells and administering the redox clamping agent. It is preferred that the redox clamping agent is Mesna. The cytotoxic or anti-cancer agents used in this design would be those such as arsenic, hydrogen peroxide and other anti-cancer agents that are known to induce a cytotoxic effect by interacting with, depleting or sequestering cellular thiols. During the two to four hour treatment these anti-cancer agents deplete cellular thiols and induce apoptotic mechanisms in the cells. However, the stress-response that is induced in the cells by these anti-cancer agents also up-regulates the production of antioxidants such as glutathione and metallothionein. These antioxidants function as potent inhibitors of apoptosis. If redox clamping agents are added after the apoptotic mechanisms are initiated, but prior to the antioxidant rebound, the redox clamping agents will function in two ways to enhance the cytotoxic effects of the anti-cancer agents. It is preferred that the redox clamping agent be Mesna, which is a thiol with low reducing potential. First, the redox clamping agents will permit the progression of apoptotic signals and the mechanisms required to mediate cell death. Secondly, the redox clamping agents will promote the apoptotic response by dramatically attenuating the antioxidant “rebound” that is associated in the inhibition of apoptosis. Redox clamping agents chemically interact with the anti-cancer agent or oppose aspects of the early stress-response that is induced by pure oxidants. Therefore, a two-step treatment protocol is required.
Human LNCaP cells, treated with 100 uM arsenic for 2 hours then washed and re-fed with normal medium, develop an elevation in cellular glutathione levels over a 24-hour period. Since exogenous antioxidants are known to be potent inhibitors of apoptotic mechanism, it is believed that internally-produced antioxidants such as glutathione function in a similar manner. […] Although Mesna increases apoptosis alone, the low concentrations of Mesna utilized in this two-step treatment protocol increased apoptosis minimally i.e., to 11 percent from a background of 3 to 5 percent in untreated cells.
(§1) In all of the experiments associated with the investigation of Mesna as a redox clamping agent, as a stand-alone anticancer agent as well as a chemosensitizer, the cell culture medium used was Swim's S-77 medium containing 12 uM cystine, instead of conventional levels of this amino acid (i.e., 50 uM). […]

For data set [4] the following is noted: within a few minutes after administration; cited from earlier work.
The conditions of data set [5]: even in very high dose, i.e. 1000 mg/kg; cited from earlier work.
Data set [6] deals with human tumor cell lines. The experiment in a line: Growth inhibition of human tumor cell lines in culture. The data set is classed as cell-based.
Description: The present invention provides a method of treating lymphoma, ovarian cancer, colorectal cancer, or gastric cancer comprising administering an effective amount of Mesna to a patient with lymphoma, ovarian cancer, colorectal cancer or gastric cancer. Mesna inhibits the growth of several human tumor cell lines in culture, and there are no strict relationships between the histopathological origin of the cell lines and the sensitivity of the cell lines to Mesna. […] It is further preferred that the patient be administered Mesna for a seven to ten day period. The doses may be cycled. The actual dose will be dependent on the size, type and location of the tumor as well as the overall status of the patient. It is preferred that high concentrations of Mesna be administered intravenously to achieve clamping initially, with further administration of oral doses to maintain the clamped state. […] Cancer cell lines were growth inhibited when Mesna was administered on several consecutive days. Mesna has shown good activity in preventing the urotoxicity of oxazaphosphorine compound.
as §1

Data set [7] concerns metastatic and/or relapsed tumors refractory to conventional therapy. The experiment in a line: Clinical study of oral Mesna as single agent in 14 patients with metastatic and/or relapsed tumors refractory to conventional therapy. The data set is classed as in vivo, human. On the procedure:
From December 1996 to March 1998 a study was performed on 14 ambulatory patients with metastatic and/or relapsed tumors refractory to conventional therapy. Eligibility criteria included histologically-confirmed advanced cancer, patients age was greater than 18 years, with a life expectancy no less than two months. The patients had not undergone major surgery within 2 weeks, or radiotherapy and/or chemotherapy within one month of the study. […] Exclusion criteria included active uncontrolled infection, pregnancy, lactation and any other co-existing medical problems severe enough to prevent full compliance with the study. Objectively measurable disease in the patients was required. All patients gave informed written consent before treatment. 600 mg/m^2 of Mesna was given by oral route four times a day, masked in orange juice for 10 consecutive days. Cycles were repeated every 15 days. No simultaneous chemotherapy and or radiotherapy and no other supportive care was given. The main objective of the study was to determine the anti-tumoral activity and toxicity of Mesna for heavily and or refractory pretreated cancer patients. […] The patients were all previously treated with between two and four different chemotherapy regimens. Mesna was administered as a single agent to all of the patients in the study. The toxic effects of Mesna and number of nodes were assessed during the first cycle of Mesna administration. […] For colorectal cancer a greater than 50% reduction of nodular lesions metastasized to liver was registered, during the second schedule of therapy. For gastric cancer a greater than 50% reduction of a subcutaneous nodule was measured during the second course of Mesna treatment.

[8] abbreviates: arsenic treated cells washed and incubated in medium containing 100 uM Mesna.

As to `CCCC(=O)O` [Butyrate], the “concentration at which apoptosis is induced” value in data set [1] (butyrate alone) is reported as “greater than 3 mM”. For the same compound, the “concentration giving an effective kill” value in data set [1] (in the presence of a redox clamping agent) is given as no less than 0.5 mM.
In the case of `O=C(O)[C@@H](S)[C@@H](S)C(=O)O` [DMSA], the “effect on stress-induced upswings in antioxidant levels (glutathione, metallothionein)” value in data set [2] is reported as “oppose stress-induced upswings in antioxidant levels”.
Take `[AsH3]` [arsenic]: in data set [3] (100 uM arsenic for 2 hours, then washed and re-fed with normal medium, 24-hour period), the “apoptosis of the cells” value came out at 28%.
For `O=S(=O)([O-])CCS.[Na+]` [Mesna, Sodium-2-mercaptoethane sulphonate], the “administered dose transformed into Mesna disulphide” value in data set [4] is “more than 90%”. The “pharmacological and toxicological behaviour” value in data set [5] is “relatively inert substance”. Besides, the “incorporation of 3H-thymidine, proline and uridine” value in data set [6] was “inhibited incorporation”. The “growth of human tumor cell lines in culture” value in data set [6] (lymphoma, ovarian cancer, colorectal cancer, gastric cancer lines, drug administered on several consecutive days) was “inhibits growth of several human tumor cell lines”. Besides, the “effect on stress-induced upswings in antioxidant levels (glutathione, metallothionein)” value in data set [2] was “oppose stress-induced upswings in antioxidant levels”. In addition, in data set [7] (colorectal cancer patient, 600 mg/m^2 oral four times a day, second schedule of therapy), the “reduction of nodular lesions metastasized to liver” value was “greater than 50%”. The “reduction of a subcutaneous nodule” value in data set [7] (gastric cancer patient, 600 mg/m^2 oral four times a day, second course of treatment) is “greater than 50%”. The objective responses entry in data set [7] (patients with lung cancer, soft tissue sarcoma, skin metastases of unknown origin, bladder cancer, melanoma and cancer of the cervix) is listed as “No objective responses were achieved”. The “clinical response in ovarian cancer patients” value in data set [7] (two patients, 600 mg/m^2 oral four times a day for 10 days, cycles every 15 days, second and third course respectively) is “reduced ascites and pain”. In data set [3] (setting [8]), the “elevation in glutathione levels” value is “dramatically diminished” and the “fraction of apoptotic cells compared to arsenic alone” value is given as “increased more than two-fold”. The “apoptosis with Mesna alone” value in data set [3] (low concentration of Mesna as used in the two-step protocol, background 3 to 5 percent in untreated cells) is reported as 11%.

The values are drawn from patent US20030036513A1, “Method for treating cancer” (priority 1999, published 2003).
